In US6358885B1, “Substituted phenylheterocyclic herbicides” (Mississippi State University, priority 1992, dated 2002):

What was measured:
[1] = system: barnyardgrass; assay: Test C flood test plant response rating 0 to 100; type: in vivo, Echinochloa crus-galli
In short: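 Compounds in non-phytotoxic solvent applied preemergence to sandy loam one day after planting, postemergence at the 1–4 leaf stage, or to ~2.5 cm floodwater over silt loam.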

[2] = system: sugar beet; assay: Test C preemergence/postemergence greenhouse plant response rating 0 to 100; type: in vivo, Beta vulgaris; details: POSTEMERGENCE
In short: (§1)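 Compounds in non-phytotoxic solvent went onto sandy loam before emergence (seeded one day earlier) or onto plants at the one-to-four leaf stage. Duck salad was treated via flood water (~2.5 cm, maintained) over silt loam.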

[3] = system: wheat; assay: Test B preemergence/postemergence greenhouse plant response rating 0 to 10; type: in vivo, Triticum aestivum; details: 0 to 10 scale
In short: (§2)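 Planted seeds are treated preemergence with compound dissolved in a non-phytotoxic solvent, while postemergence applications go onto plants of two to eighteen cm. Plants stay in the greenhouse twelve to sixteen days and are then rated visually relative to controls.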

[4] = system: corn; assay: as above; type: in vivo, Zea mays; details: 0 to 10 scale
In short: as §2

[5] = system: rice; assay: as above; type: in vivo, Oryza sativa; details: 0 to 10 scale
In short: as §2

[6] = system: wild oat; assay: as above; type: in vivo, Avena fatua; details: 0 to 10 scale
In short: as §2

[7] = system: duck salad; assay: Test C flood test plant response rating 0 to 100; type: in vivo, Heteranthera limosa
In short: as §1

[8] = system: cotton; assay: Test B preemergence/postemergence greenhouse plant response rating 0 to 10; type: in vivo, Gossypium hirsutum; details: 0 to 10 scale
In short: as §2

[9] = system: cotton; assay: Test C preemergence/postemergence greenhouse plant response rating 0 to 100; type: in vivo, Gossypium hirsutum; details: POSTEMERGENCE
In short: as §1

[10] = system: downy brome; assay: as above; type: in vivo, Bromus tectorum; details: POSTEMERGENCE
In short: as §1

[11] = system: sorghum; assay: as above; type: in vivo, Sorghum bicolor; details: POSTEMERGENCE
In short: as §1

[12] = system: velvetleaf; assay: as above; type: in vivo, Abutilon theophrasti; details: POSTEMERGENCE
In short: as §1

[13] = system: crabgrass; assay: as above; type: in vivo, Digitaria sanguinalis; details: POSTEMERGENCE
In short: as §1

[14] = system: giant foxtail; assay: as above; type: in vivo, Setaria faberii; details: POSTEMERGENCE
In short: as §1

[15] = system: lambsquarters; assay: as above; type: in vivo, Chenopodium album; details: POSTEMERGENCE
In short: as §1

[16] = system: lambsquarters; assay: Test B preemergence/postemergence greenhouse plant response rating 0 to 10; type: in vivo, Chenopodium album; details: 0 to 10 scale
In short: as §2

[17] = system: cheatgrass; assay: as above; type: in vivo, Bromus secalinus; details: 0 to 10 scale
In short: as §2

[18] = system: bedstraw; assay: Test C preemergence/postemergence greenhouse plant response rating 0 to 100; type: in vivo, Galium aparine; details: POSTEMERGENCE
In short: as §1

[19] = POSTEMERGENCE section, flood test, Rate 1 g/ha
[20] = POSTEMERGENCE section, flood test, Rate 4 g/ha
[21] = Rate 16 g/ha, under POSTEMERGENCE head (flood test species)
[22] = flood test species listed under POSTEMERGENCE, 62 g/ha, 0 to 100 scale

## COCN1C(=O)COc2cc(F)c(-c3nn4c(c3Br)CCCC4)cc21 [Compound 67]
[1]; [19]
  Plant response rating (0 to 100), Barnyardgrass 2: 0
[1]; [20]
  Plant response rating (0 to 100), Barnyardgrass 2: 20
[1]; [21]
  Plant response rating (0 to 100), Barnyardgrass 2: 90
[1]; [22]
  Plant response rating Barnyardgrass 2: 95
[2]; 62 g/ha, 0 to 100 scale
  Plant response rating, Sugar beet: 100
[2]; Rate 1 g/ha
  Plant response rating (0 to 100), Sugar beet: 100
[2]; Rate 4 g/ha
  Plant response rating (0 to 100), Sugar beet: 100
[2]; Rate 16 g/ha
  Plant response rating (0 to 100), Sugar beet: 100
[3]; POSTEMERGENCE, Rate 10 g/ha
  Plant response rating, Wheat: 5
[3]; POSTEMERGENCE, Rate 50 g/ha
  Plant response rating, Wheat: 6
[3]; PREEMERGENCE, Rate 50 g/ha
  Plant response rating, Wheat: 0
[4]; POSTEMERGENCE, Rate 10 g/ha
  Plant response rating, Corn: 3
[4]; POSTEMERGENCE, Rate 50 g/ha
  Plant response rating, Corn: 4
[4]; PREEMERGENCE, Rate 50 g/ha
  Plant response rating, Corn: 2
[5]; POSTEMERGENCE, Rate 10 g/ha
  Plant response rating, Rice: 6
[5]; POSTEMERGENCE, Rate 50 g/ha
  Plant response rating, Rice: 7
[5]; PREEMERGENCE, Rate 50 g/ha
  Plant response rating, Rice: 0
[6]; POSTEMERGENCE, Rate 10 g/ha
  Plant response rating, Wild oat: 6
[6]; POSTEMERGENCE, Rate 50 g/ha
  Plant response rating, Wild oat: 7
[6]; PREEMERGENCE, Rate 50 g/ha
  Plant response rating, Wild oat: 5
[7]; [19]
  Plant response rating (0 to 100), Duck salad: 0
[7]; [20]
  Plant response rating (0 to 100), Duck salad: 0
[7]; [21]
  Plant response rating (0 to 100), Duck salad: 0
[7]; [22]
  Plant response rating Duck salad: 10
[8]; POSTEMERGENCE, Rate 10 g/ha
  Plant response rating, Cotton: 10
[8]; POSTEMERGENCE, Rate 50 g/ha
  Plant response rating, Cotton: 10
[8]; PREEMERGENCE, Rate 10 g/ha
  Plant response rating, Cotton: 0
[8]; PREEMERGENCE, Rate 50 g/ha
  Plant response rating, Cotton: 1
[9]; 62 g/ha, 0 to 100 scale
  Plant response rating, Cotton: 100
[9]; Rate 1 g/ha
  Plant response rating (0 to 100), Cotton: 95
[9]; Rate 4 g/ha
  Plant response rating (0 to 100), Cotton: 100
[9]; Rate 16 g/ha
  Plant response rating (0 to 100), Cotton: 100
[10]; 62 g/ha, 0 to 100 scale
  Plant response rating Downy Brome: 60
[10]; Rate 1 g/ha
  Plant response rating (0 to 100), Downy Brome: 20
[10]; Rate 4 g/ha
  Plant response rating (0 to 100), Downy Brome: 50
[10]; Rate 16 g/ha
  Plant response rating (0 to 100), Downy Brome: 60
[11]; 62 g/ha, 0 to 100 scale
  Plant response rating, Sorghum: 60
[11]; Rate 1 g/ha
  Plant response rating (0 to 100), Sorghum: 20
[11]; Rate 4 g/ha
  Plant response rating (0 to 100), Sorghum: 30
[11]; Rate 16 g/ha
  Plant response rating (0 to 100), Sorghum: 40
[12]; 62 g/ha, 0 to 100 scale
  Plant response rating, Velvetleaf: 100
[12]; Rate 1 g/ha
  Plant response rating (0 to 100), Velvetleaf: 70
[12]; Rate 4 g/ha
  Plant response rating (0 to 100), Velvetleaf: 85
[12]; Rate 16 g/ha
  Plant response rating (0 to 100), Velvetleaf: 100
[13]; 62 g/ha, 0 to 100 scale
  Plant response rating, Crabgrass: 40
[13]; Rate 1 g/ha
  Plant response rating (0 to 100), Crabgrass: 10
[13]; Rate 4 g/ha
  Plant response rating (0 to 100), Crabgrass: 20
[13]; Rate 16 g/ha
  Plant response rating (0 to 100), Crabgrass: 30
[14]; 62 g/ha, 0 to 100 scale
  Plant response rating, Giant foxtail: 40
[14]; Rate 1 g/ha
  Plant response rating (0 to 100), Giant foxtail: 10
[14]; Rate 4 g/ha
  Plant response rating (0 to 100), Giant foxtail: 20
[14]; Rate 16 g/ha
  Plant response rating (0 to 100), Giant foxtail: 30
[15]; 62 g/ha, 0 to 100 scale
  Plant response rating Lambsquarters: 100
[15]; Rate 1 g/ha
  Plant response rating (0 to 100), Lambsquarters: 100
[15]; Rate 4 g/ha
  Plant response rating (0 to 100), Lambsquarters: 100
[15]; Rate 16 g/ha
  Plant response rating (0 to 100), Lambsquarters: 100
[16]; POSTEMERGENCE, Rate 10 g/ha
  Plant response rating, Lambsquarter: 9
[16]; POSTEMERGENCE, Rate 50 g/ha
  Plant response rating, Lambsquarter: 10
[16]; PREEMERGENCE, Rate 50 g/ha
  Plant response rating, Lambsquarter: 10
[17]; POSTEMERGENCE, Rate 10 g/ha
  Plant response rating, Cheatgrass: 5
[17]; POSTEMERGENCE, Rate 50 g/ha
  Plant response rating, Cheatgrass: 6
[17]; PREEMERGENCE, Rate 10 g/ha
  Plant response rating, Cheatgrass: 2
[17]; PREEMERGENCE, Rate 50 g/ha
  Plant response rating, Cheatgrass: 6
[18]; 62 g/ha, 0 to 100 scale
  Plant response rating, Bedstraw: 80
[18]; Rate 1 g/ha
  Plant response rating (0 to 100), Bedstraw: 40
[18]; Rate 4 g/ha
  Plant response rating (0 to 100), Bedstraw: 70
[18]; Rate 16 g/ha
  Plant response rating (0 to 100), Bedstraw: 80
